In patent publication US10280149B2, “Therapeutic compounds and uses thereof” (GENENTECH, INC., priority 2015, dated 2019):

Each molecule was assayed against Full length KDM2B (Homo sapiens (Human), UniProt Q8NHM5) (assay: KDM2B TR-FRET assay for determining inhibitor IC50). Details: TR-FRET (HTRF), biotin-H3K36me2 peptide substrate, 2-OG 0.3 μM or 6 μM.
Chain of Full length KDM2B (Q8NHM5 whole entry): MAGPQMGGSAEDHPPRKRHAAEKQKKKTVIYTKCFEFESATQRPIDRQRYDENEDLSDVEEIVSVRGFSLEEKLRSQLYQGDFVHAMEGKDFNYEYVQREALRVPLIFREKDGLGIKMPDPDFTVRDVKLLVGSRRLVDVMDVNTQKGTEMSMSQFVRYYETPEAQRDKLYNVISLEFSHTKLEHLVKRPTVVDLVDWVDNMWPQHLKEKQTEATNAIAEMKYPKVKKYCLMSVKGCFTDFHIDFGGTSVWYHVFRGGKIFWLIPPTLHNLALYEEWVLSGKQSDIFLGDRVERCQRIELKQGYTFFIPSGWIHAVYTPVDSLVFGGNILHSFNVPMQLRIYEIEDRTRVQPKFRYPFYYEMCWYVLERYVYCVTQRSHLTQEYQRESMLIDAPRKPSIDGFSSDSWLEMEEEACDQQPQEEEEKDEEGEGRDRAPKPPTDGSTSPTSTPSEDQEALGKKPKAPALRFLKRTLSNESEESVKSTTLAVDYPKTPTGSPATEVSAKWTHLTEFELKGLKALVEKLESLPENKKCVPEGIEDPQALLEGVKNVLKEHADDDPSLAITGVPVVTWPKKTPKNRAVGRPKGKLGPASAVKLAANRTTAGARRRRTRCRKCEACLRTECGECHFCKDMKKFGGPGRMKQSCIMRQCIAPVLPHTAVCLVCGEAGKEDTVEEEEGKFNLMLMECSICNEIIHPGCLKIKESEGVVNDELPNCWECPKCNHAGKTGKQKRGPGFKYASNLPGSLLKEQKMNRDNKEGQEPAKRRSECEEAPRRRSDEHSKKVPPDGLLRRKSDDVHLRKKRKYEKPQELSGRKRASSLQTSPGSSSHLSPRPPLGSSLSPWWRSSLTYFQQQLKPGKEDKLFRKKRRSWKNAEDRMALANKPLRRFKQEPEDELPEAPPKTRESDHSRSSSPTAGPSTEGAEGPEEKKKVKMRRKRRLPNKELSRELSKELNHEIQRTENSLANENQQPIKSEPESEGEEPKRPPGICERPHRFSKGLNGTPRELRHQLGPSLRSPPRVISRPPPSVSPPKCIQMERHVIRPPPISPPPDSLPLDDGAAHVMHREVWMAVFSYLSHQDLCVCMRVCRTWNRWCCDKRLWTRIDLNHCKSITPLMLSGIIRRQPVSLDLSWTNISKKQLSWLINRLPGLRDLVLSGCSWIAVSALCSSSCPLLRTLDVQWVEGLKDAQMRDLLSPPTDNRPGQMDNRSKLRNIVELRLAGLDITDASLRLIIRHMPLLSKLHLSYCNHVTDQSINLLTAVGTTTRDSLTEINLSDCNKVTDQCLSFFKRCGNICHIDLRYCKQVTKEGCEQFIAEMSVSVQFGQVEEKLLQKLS
Format: biochemical
Description: KDM2B TR-FRET Assay for Determining Inhibitor IC50
The KDM2B TR-FRET Assay described above represents an additional embodiment of the invention.
`O=C(c1cc(CO)c2ccccc2c1)C1CCCN(C2CCC2)C1` (stereo not drawn) [Example 58, (1-cyclobutyl-3-piperidyl)-[4-(hydroxymethyl)-2-naphthyl]methanone] gave an IC50 of 47.6 nM. With `Cc1cccc2ccc(C(=O)C3CCCN(CC4CC4)C3)cc12` (stereo not drawn) [Example 59, [1-(cyclopropylmethyl)-3-piperidyl]-(8-methyl-2-naphthyl)methanone] the IC50 was 169 nM. `CCCN1CCCC(C(=O)c2ccc3cccc(C)c3c2)C1` (stereo not drawn) [Example 60, (8-methyl-2-naphthyl)-(1-propyl-3-piperidyl)methanone] gave an IC50 of 125 nM. `Cc1cccc2ccc(C(=O)C3CCCN(C4CCCC4)C3)cc12` (stereo not drawn) [Example 61, (1-cyclopentyl-3-piperidyl)-(8-methyl-2-naphthyl)methanone] showed an IC50 of 174 nM. In the case of `Cc1cccc2ccc(C(=O)C3CCCN(C4CCC4)C3)cc12` (stereo not drawn) [Example 62, (1-cyclobutyl-3-piperidyl)-(8-methyl-2-naphthyl)methanone], the IC50 is reported as 103 nM. `CC(O)c1cc(C(=O)C2CCCN(C3CCCC3)C2)cc2ccccc12` (stereo not drawn) [Example 63, (1-cyclopentyl-3-piperidyl)-[4-(1-hydroxyethyl)-2-naphthyl]methanone] gave an IC50 of 150 nM. `CC(O)c1cc(C(=O)C2CCCN(C3CCC3)C2)cc2ccccc12` (stereo not drawn) [Example 64, (1-cyclobutyl-3-piperidyl)-[4-(1-hydroxyethyl)-2-naphthyl]methanone] showed an IC50 of 43.8 nM. `COc1ccc2cc(C(=O)C3CCCN(C4CC(C#N)C4)C3)ccc2c1` (stereo not drawn) [Example 65, 3-[3-(6-methoxynaphthalene-2-carbonyl)-1-piperidyl]cyclobutanecarbonitrite] showed an IC50 of 309 nM. `COc1ccc2cc(C(=O)C3CCCN(C4CC(F)(F)C4)C3)ccc2c1` (stereo not drawn) [Example 66, [1-(3,3-difluorocyclobutyl)-3-piperidyl]-(6-methoxy-2-naphthyl)methanone] was tested, and the IC50 was 67.5 nM. Work on `CC(O)c1cc(C(=O)C2CCCN(CC3CC3)C2)cc2ccccc12` (stereo not drawn) [Example 67, [1-(cyclopropylmethyl)-3-piperidyl]-[4-(1-hydroxyethyl)-2-naphthyl]methanone] yielded an IC50 of 148 nM. `CCCN1CCCC(C(=O)c2cc(C(C)O)c3ccccc3c2)C1` (stereo not drawn) [Example 68, [4-(1-hydroxyethyl)-2-naphthyl]-(1-propyl-3-piperidyl)methanone] gave an IC50 of 76.2 nM. `COc1ccc2cc(C(=O)C3CCCN(CC4CCC4)C3)ccc2c1` (stereo not drawn) [Example 69, [1-(cyclobutylmethyl)-3-piperidyl]-(6-methoxy-2-naphthyl)methanone] gave an IC50 of 150 nM. For `CCCN1CCCC(C(=O)c2ccc3c(C)c(C#N)ccc3c2)C1` (stereo not drawn) [Example 70, 1-methyl-6-(1-propylpiperidine-3-carbonyl)-2-naphthonitrile], the IC50 was 91.8 nM. In the case of `Cc1c(C#N)ccc2cc(C(=O)C3CCCN(CC4CC4)C3)ccc12` (stereo not drawn) [Example 71, 6-(1-(cyclopropylmethyl)piperidine-3-carbonyl)-1-methyl-2-naphthonitrile], the IC50 is reported as 132 nM. `Cc1c(C#N)ccc2cc(C(=O)C3CCCN(C4CCC4)C3)ccc12` (stereo not drawn) [Example 72, 6-(1-cyclobutylpiperidine-3-carbonyl)-1-methyl-2-naphthonitrile] gave an IC50 of 87.5 nM. In the case of `Cc1c(C#N)ccc2cc(C(=O)C3CCCN(C4CCCC4)C3)ccc12` (stereo not drawn) [Example 73, 6-(1-cyclopentylpiperidine-3-carbonyl)-1-methyl-2-naphthonitrile], the IC50 is reported as 327 nM. Work on `CCN1CCCC(C(=O)c2ccc3cc(OC)ccc3c2)C1` (stereo not drawn) [Example 74, (1-ethyl-3-piperidyl)-(6-methoxy-2-naphthyl)methanone] yielded an IC50 of 1150 nM. In the case of `COc1ccc2cc(C(=O)C3CCCN(C4CCC4)C3)ccc2c1` (stereo not drawn) [Example 76, (1-cyclobutyl-3-piperidyl)-(6-methoxy-2-naphthyl)methanone], the IC50 is reported as 619 nM. `COc1ccc2cc(C(=O)C3CCCN(CC4CC4)C3)ccc2c1` (stereo not drawn) [Example 77, [1-(cyclopropylmethyl)-3-piperidyl]-(6-methoxy-2-naphthyl)methanone] was tested, and the IC50 was 208 nM. Work on `COCCN1CCCC(C(=O)c2ccc3cc(OC)ccc3c2)C1` (stereo not drawn) [Example 78, [1-(2-methoxyethyl)-3-piperidyl]-(6-methoxy-2-naphthyl)methanone] yielded an IC50 of 2400 nM. `COc1ccc2cc(C(=O)C3CCCN(CCF)C3)ccc2c1` (stereo not drawn) [Example 79, [1-(2-fluoroethyl)-3-piperidyl]-(6-methoxy-2-naphthyl)methanone] showed an IC50 of 1800 nM. In the case of `COc1ccc2cc(C(=O)C3CCCN(C(C)C)C3)ccc2c1` (stereo not drawn) [Example 81, (1-isopropyl-3-piperidyl)-(6-methoxy-2-naphthyl)methanone], the IC50 is reported as 6500 nM. For `COc1ccc2cc(C(=O)C3CCCN(CCC#N)C3)ccc2c1` (stereo not drawn) [Example 84, 3-[3-(6-methoxynaphthalene-2-carbonyl)-1-piperidyl]propanenitrile], the IC50 was 709 nM. Molecule `CCCN1CCCC(C(=O)c2cccc(N(C)C)c2)C1` (stereo not drawn) [Example 90, [3-(dimethylamino)phenyl]-(1-propyl-3-piperidyl)methanone] has an IC50 of 1600 nM. `CCCN1CCCC(C(=O)c2ccc(Cl)cc2)C1` (stereo not drawn) [Example 91, (4-chlorophenyl)-(1-propyl-3-piperidyl)methanone] gave an IC50 of 1600 nM. Molecule `CCCN1CCCC(C(=O)c2cccc(Cl)c2)C1` (stereo not drawn) [Example 92, (3-chlorophenyl)-(1-propyl-3-piperidyl)methanone] has an IC50 of 723 nM. Work on `CCCN1CCCC(C(=O)c2ccc3c(cnn3C)c2)C1` (stereo not drawn) [Example 94, (1-methylindazol-5-yl)-(1-propyl-3-piperidyl)methanone] yielded an IC50 of 122 nM. `CCCN1CCCC(C(=O)c2cccc(OCc3ccccc3)c2)C1` (stereo not drawn) [Example 95, (3-benzyloxyphenyl)-(1-propyl-3-piperidyl)methanone] gave an IC50 of 823 nM. `CCCN1CCCC(C(=O)c2ccc(OC)cc2)C1` (stereo not drawn) [Example 97, (4-methoxyphenyl)-(1-propyl-3-piperidyl)methanone] showed an IC50 of 930 nM. `CCCN1CCCC(C(=O)c2cccc(OC)c2)C1` (stereo not drawn) [Example 98, (3-methoxyphenyl)-(1-propyl-3-piperidyl)methanone] gave an IC50 of 1600 nM. Work on `CCCN1CCCC(C(=O)c2ccccc2OC)C1` (stereo not drawn) [Example 99, (2-methoxyphenyl)-(1-propyl-3-piperidyl)methanone] yielded an IC50 of 5500 nM. For `CCCN1CCCC(C(=O)c2ccc(C(F)(F)F)cc2)C1` (stereo not drawn) [Example 100, (1-propyl-3-piperidyl)-[4-(trifluoromethyl)phenyl]methanone], the IC50 was 1200 nM. For `CCCN1CCCC(C(=O)c2ccc(Cl)c(Cl)c2)C1` (stereo not drawn) [Example 101, (3,4-dichlorophenyl)-(1-propyl-3-piperidyl)methanone], the IC50 was 279 nM. Work on `CCCN1CCCC(C(=O)c2ccccc2-c2ccccc2)C1` (stereo not drawn) [Example 102, (2-phenylphenyl)-(1-propyl-3-piperidyl)methanone] yielded an IC50 of 5800 nM. Molecule `CCCN1CCCC(C(=O)c2ccc(OC(F)(F)F)cc2)C1` (stereo not drawn) [Example 103, (1-propyl-3-piperidyl)-[4-(trifluoromethoxy)phenyl]methanone] has an IC50 of 2000 nM. `CCCN1CCCC(C(=O)c2ccc(OC)c(OC)c2)C1` (stereo not drawn) [Example 104, (3,4-dimethoxyphenyl)-(1-propyl-3-piperidyl)methanone] gave an IC50 of 744 nM. Molecule `CCCN1CCCC(C(=O)c2cc(OC)cc(OC)c2)C1` (stereo not drawn) [Example 105, (3,5-dimethoxyphenyl)-(1-propyl-3-piperidyl)methanone] has an IC50 of 272 nM. With `CCCN1CCCC(C(=O)c2ccc(C)c(C)c2)C1` (stereo not drawn) [Example 106, (3,4-dimethylphenyl)-(1-propyl-3-piperidyl)methanone] the IC50 was 247 nM. `CCCN1CCCC(C(=O)c2ccc3c(c2)CCCC3)C1` (stereo not drawn) [Example 107, (1-propyl-3-piperidyl)-tetralin-6-yl-methanone] showed an IC50 of 99.8 nM. `CCCN1CCCC(C(=O)c2ccc3c(c2)OCCO3)C1` (stereo not drawn) [Example 108, 2,3-dihydro-1,4-benzodioxin-6-yl-(1-propyl-3-piperidyl)methanone] gave an IC50 of 297 nM. With `O=C(c1ccc2c(Oc3ccccc3)cccc2c1)C1CCCN(CC2CC2)C1` (stereo not drawn) [Example 112, (1-(cyclopropylmethyl)piperidin-3-yl)(5-phenoxynaphthalen-2-yl)methanone] the IC50 was 175 nM. Molecule `O=C(c1ccccc1Cl)C1CCCN(CC2CC2)C1` (stereo not drawn) [Example 113, (2-chlorophenyl)(1-(cyclopropylmethyl)piperidin-3-yl)methanone] has an IC50 of 5400 nM. `COc1cccc2cc(C(=O)C3CCCN(CC4CC4)C3)ccc12` (stereo not drawn) [Example 114, (1-(cyclopropylmethyl)piperidin-3-yl)(5-methoxynaphthalen-2-yl)methanone] gave an IC50 of 220 nM. `Cc1c(C(=O)C2CCCN(CC3CC3)C2)ccc2ccccc12` (stereo not drawn) [Example 115, (1-(cyclopropylmethyl)piperidin-3-yl)(1-methylnaphthalen-2-yl)methanone] was tested, and the IC50 was 439 nM. `Cn1ccc2ccc(C(=O)C3CCCN(CC4CC4)C3)cc21` (stereo not drawn) [Example 119, (1-(cyclopropylmethyl)piperidin-3-yl)(1-methyl-1H-indol-6-yl)methanone] gave an IC50 of 2300 nM. For `O=C(c1cc2ccccc2s1)C1CCCN(CC2CC2)C1` (stereo not drawn) [Example 120, Benzo[b]thiophen-2-yl(1-(cyclopropylmethyl)piperidin-3-yl)methanone], the IC50 was 389 nM. For `COc1cc2ccc(C(=O)C3CCCN(CC4CC4)C3)cc2cn1` (stereo not drawn) [Example 121, (1-(cyclopropylmethyl)piperidin-3-yl)(3-methoxyisoquinolin-7-yl)methanone], the IC50 was 380 nM. `COc1ccc2cc(C(=O)C3CCCN(CC4CC4)C3)ccc2n1` (stereo not drawn) [Example 122, (1-(cyclopropylmethyl)piperidin-3-yl)(2-methoxyquinolin-6-yl)methanone] gave an IC50 of 205 nM. Work on `O=C(c1ccc2c(OCc3ccccc3)cccc2c1)C1CCCN(CC2CC2)C1` (stereo not drawn) [Example 123, (5-(benzyloxy)naphthalen-2-yl)(1-(cyclopropylmethyl)piperidin-3-yl)methanone] yielded an IC50 of 90.9 nM. Molecule `O=C(c1cnn(-c2ccccc2)c1)C1CCCN(CC2CC2)C1` (stereo not drawn) [Example 124, (1-(cyclopropylmethyl)piperidin-3-yl)(1-phenyl-1H-pyrazol-4-yl)methanone] has an IC50 of 656 nM. Work on `O=C(c1cnc2ccccc2c1)C1CCCN(CC2CC2)C1` (stereo not drawn) [Example 125, (1-(cyclopropylmethyl)piperidin-3-yl)(quinolin-3-yl)methanone] yielded an IC50 of 489 nM.
